Like-named read-outs stand apart in the source and are kept apart here.
Columns and labels:
mouse sEH = molecular target: T1, mouse sEH (Mus musculus, UniProt P34914); assay: Inhibition of recombinant mouse sEH, IC50 assay with 4-nitrophenyl-trans-2,3-epoxy-3-phenylpropyl carbonate as substrate; assay type: biochemical; settings: for IC90: 0.12 μM enzyme
T1 construct: made in house; host or cells: baculovirus expression system
T1 sequence (P34914 1-554): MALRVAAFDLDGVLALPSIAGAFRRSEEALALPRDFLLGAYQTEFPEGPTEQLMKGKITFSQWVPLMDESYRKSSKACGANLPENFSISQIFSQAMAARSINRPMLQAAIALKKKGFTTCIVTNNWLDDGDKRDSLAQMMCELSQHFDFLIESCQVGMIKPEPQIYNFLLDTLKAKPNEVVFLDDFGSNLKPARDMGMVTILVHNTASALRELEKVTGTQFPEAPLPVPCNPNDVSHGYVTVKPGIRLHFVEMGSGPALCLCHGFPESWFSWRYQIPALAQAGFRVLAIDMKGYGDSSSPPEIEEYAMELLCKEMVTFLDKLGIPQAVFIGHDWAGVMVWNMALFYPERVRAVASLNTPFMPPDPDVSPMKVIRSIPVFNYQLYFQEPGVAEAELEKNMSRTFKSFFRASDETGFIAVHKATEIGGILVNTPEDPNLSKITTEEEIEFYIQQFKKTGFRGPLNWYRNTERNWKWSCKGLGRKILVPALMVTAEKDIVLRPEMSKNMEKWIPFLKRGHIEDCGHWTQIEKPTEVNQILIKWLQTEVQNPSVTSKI
Method: (§1) Assays were performed in triplicate. […] The curve was generated from at least three separate runs, each in triplicate, to obtain the standard deviation (SD) given in Table 1 thru Table 4.

human sEH = molecular target: T2, human sEH (Homo sapiens, UniProt P34913); assay: Inhibition of recombinant human sEH, IC50 assay with 4-nitrophenyl-trans-2,3-epoxy-3-phenylpropyl carbonate as substrate; assay type: biochemical; settings: for IC90: 0.24 μM enzyme
T2 construct: made in house; host or cells: baculovirus expression system
T2 sequence (P34913 1-555): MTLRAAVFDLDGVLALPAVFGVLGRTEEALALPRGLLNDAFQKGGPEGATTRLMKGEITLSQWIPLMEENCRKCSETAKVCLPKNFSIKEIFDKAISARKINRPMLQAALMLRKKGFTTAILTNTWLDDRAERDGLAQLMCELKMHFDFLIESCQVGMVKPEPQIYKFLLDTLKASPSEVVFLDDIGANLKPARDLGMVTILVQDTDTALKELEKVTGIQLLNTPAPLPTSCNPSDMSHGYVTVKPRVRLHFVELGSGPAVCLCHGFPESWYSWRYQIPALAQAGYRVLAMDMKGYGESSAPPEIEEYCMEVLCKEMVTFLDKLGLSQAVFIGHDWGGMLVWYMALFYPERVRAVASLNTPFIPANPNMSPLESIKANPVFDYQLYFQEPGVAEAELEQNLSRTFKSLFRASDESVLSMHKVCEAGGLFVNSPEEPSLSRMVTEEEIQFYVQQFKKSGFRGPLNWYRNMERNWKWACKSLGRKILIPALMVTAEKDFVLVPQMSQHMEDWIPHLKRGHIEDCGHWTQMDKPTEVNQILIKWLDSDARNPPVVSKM
Method: as §1

[1] = Table 5, 5 min preincubation, pH 7.4, 30° C., means ± SD
[2] = Table 5, […] enzyme, 5 min preincubation, pH 7.4, 30° C., means ± SD, read-out: Mouse sEH IC50
[3] = Table 5, […] enzyme, 5 min preincubation, pH 7.4, 30° C., means ± SD, read-out: Human sEH IC50
[4] = Tables 17a and b, read-out: IC50 (μM) Mouse sEH
[5] = Tables 17a and b, read-out: IC50 (μM) Human sEH
[6] = Table 9, established protocols, read-out: IC50 (μM) Mouse sEH
[7] = Table 9, established protocols, read-out: IC50 (μM) Human sEH

SMILES	IC50 (mouse sEH; [4]) [µM]	IC50 (human sEH; [5]) [µM]	also measured
CCOC(=O)CCCCCCCCCCOC(=O)CCCNC(=O)NC12CC3CC(CC(C3)C1)C2 [Compound 881]			IC90 (mouse sEH; [1]): 350 ± 50 nM; IC50 (mouse sEH; [2]): 0.05 ± 0.01 µM; IC90 (human sEH; [1]): 1200 ± 100 nM; IC50 (human sEH; [3]): 0.1 ± 0.01 µM
O=C(NN1CCOCC1)NC12CC3CC(CC(C3)C1)C2 [Compound 1015]	1.3 ± 0.01	8.7 ± 0.01	
O=C(CCCNC(=O)NC12CC3CC(CC(C3)C1)C2)NC(C(=O)N1CCCC1C(=O)O)c1c[nH]cn1 (stereo not drawn) [Compound 1012]	0.09 ± 0.01	100 ± 0.01	
CC(O)c1cccc2c(S(=O)(=O)NCCOCCOCCCCCNC(=O)NC34CC5CC(CC(C5)C3)C4)cccc12 (stereo not drawn) [Compound 976]	0.05 ± 0.01	0.1 ± 0.01	
CCCCCCCCCCNC(=O)NC1CCCCC1 [Compound 791, reference compound]			IC50 (mouse sEH; Table 2, […] enzyme, 5 min preincubation, pH 7.4, 30° C., means ± SD, read-out: IC50 (μM) Mouse sEH): 0.05 ± 0.01 µM; IC50 (human sEH; Table 2, […] enzyme, 5 min preincubation, pH 7.4, 30° C., means ± SD, read-out: IC50 (μM) Human sEH): 0.14 ± 0.01 µM
CCOC(=O)c1ccc(C(C)OC(=O)CCCNC(=O)NC23CC4CC(CC(C4)C2)C3)cc1 (stereo not drawn) [Compound 948]	0.08 ± 0.01	0.12 ± 0.01	
CCCCC(C)OC(=O)CCCNC(=O)NC12CC3CC(CC(C3)C1)C2 (stereo not drawn) [Compound 943]	0.05 ± 0.01	0.13 ± 0.01	
CC(C)=CCOC1CCC(NC(=O)NC23CC4CC(CC(C4)C2)C3)CC1 (stereo not drawn) [Compound 983]			IC50 (mouse sEH; [6]): 0.05 ± 0.01 µM; IC50 (human sEH; [7]): 0.1 ± 0.01 µM
CCCCC(CC)OCCCCCNC(=O)NC12CC3CC(CC(C3)C1)C2 (stereo not drawn) [Compound 910]	0.05 ± 0.01	0.24 ± 0.01	
COc1ccc(CC(=O)NC2CCCCC2)cc1 [Compound 970]	1.4 ± 0.01	4.8 ± 0.01	
CCCCCOC(=O)C1CCC(NC(=O)NC23CC4CC(CC(C4)C2)C3)CC1 (stereo not drawn) [Compound 863]			IC50 (mouse sEH; [6]): 0.05 ± 0.01 µM; IC50 (human sEH; [7]): 0.12 ± 0.01 µM
COc1ccc(NC(=O)CC2CCCCC2)cc1 [Compound 965]	0.15 ± 0.01		IC50 (human sEH): 6 ± 0.01 µM
CC(C)OCCOCCOCCCCCNC(=O)NC12CC3CC(CC(C3)C1)C2 [Compound 974]	0.05 ± 0.01	0.1 ± 0.01	
O=C(Nc1ccc2ccccc2c1)NC1CCCCC1 [Compound 998]	0.1 ± 0.01	3.7 ± 0.01	
CCCCCOC(=O)C1CCCC(NC(=O)NC23CC4CC(CC(C4)C2)C3)C1 (stereo not drawn) [Compound 906]	0.05 ± 0.01		IC50 (human sEH): 0.1 ± 0.01 µM
CCCCCOC(=O)CCCNC(=O)CC12CC3CC(CC(C3)C1)C2 [Compound 1017]			IC50 (mouse sEH; Table 8, established protocols, read-out: IC50 (μM) Mouse sEH): 0.05 ± 0.01 µM; IC50 (human sEH; Table 8, established protocols, read-out: IC50 (μM) Human sEH): 0.43 ± 0.02 µM
CC(=O)Nc1ccc(CC(=O)NC23CC4CC(CC(C4)C2)C3)cc1 [Compound 912]	4.1 ± 0.01	35 ± 0.01	
O=C(CC12CC3CC(CC(C3)C1)C2)NCCCc1ccccc1 [Compound 967]	0.07 ± 0.01	0.12 ± 0.01	
COC(=O)CNC(=O)NC1CCCCC1 [Compound 549]			IC50 (mouse sEH; Table 1, […] enzyme, 5 min preincubation, pH 7.4, 30° C., [S] = 40 μM, means ± SD of three experiments, read-out: IC50 (μM) Mouse sEH): 33 ± 2 µM; IC50 (human sEH; Table 1, […] enzyme, 5 min preincubation, pH 7.4, 30° C., [S] = 40 μM, means ± SD of three experiments, read-out: IC50 (μM) Human sEH): 70 ± 6 µM
O=C(NCCCCCOCCOCCOCCO)NC12CC3CC(CC(C3)C1)C2 [Compound 975]			IC50 (mouse sEH; Table 7, established protocols, read-out: IC50 (μM) Mouse sEH): 0.05 ± 0.01 µM; IC50 (human sEH; Table 7, established protocols, read-out: IC50 (μM) Human sEH): 0.1 ± 0.01 µM
CCOC(=O)CCOC(=O)CCCNC(=O)NC12CC3CC(CC(C3)C1)C2 [Compound 876]			IC90 (mouse sEH; [1]): 630 ± 20 nM; IC50 (mouse sEH; [2]): 0.05 ± 0.01 µM; IC90 (human sEH; [1]): 9000 ± 2000 nM; IC50 (human sEH; [3]): 0.54 ± 0.05 µM
CSC(NC(=O)C(NC(=O)CCCNC(=O)NC12CC3CC(CC(C3)C1)C2)c1c[nH]cn1)C(=O)O (stereo not drawn) [Compound 1013]	0.05 ± 0.01	1.5 ± 0.01	

Source: patent US20050164951A1, “Inhibitors for the soluble epoxide hydrolase” (The Regents of the University of California, priority 2003, published 2005)
